# In US20060039879A1, “Use of particular polyols for preventing the hair from breaking, composition comprising them and cosmetic hair treatment process” (L'OREAL, priority 2004, published 2006):
# Tests used:
# [1] = Level of premature breakage of hairs in a tensile test (Zwick tensile testing machine); settings: 5% by weight compound in water; 30 natural African hairs immersed 3 days at 40° C., no final rinsing; hairs 30 mm, drawn at 10 mm/minute; untreated control R = 0.27
# Description: The hair used for the following tests was left in a glove box at 25° C. and 45% relative humidity for about 24 hours.
# A composition was prepared by mixing together 5% by weight of the compound of Example 1 and 95% by weight of water relative to the total weight of the composition.
# 30 natural African hairs were then treated with this composition: the hairs were immersed for 3 days at 40° C., without final rinsing, and their level of premature breakage was then compared with that of a batch of untreated natural control hairs.
# Mechanical tests were performed using a Zwick tensile testing machine on the hairs 30 mm long. The hairs were drawn at a speed of 10 mm/minute.
# The level of premature breakage of the treated African hair, on the one hand, and of the untreated African hair, on the other hand, was evaluated as follows: R=1—(number of hairs showing breakage under tension in the hardening zone/N) • N being the total number of hairs tested.
# [2] = treatment with aqueous solutions of the humectant; breakage for small elongations; cited from earlier work
Structure (SMILES),"Level of premature breakage R, first test [1]","Level of premature breakage R, second test [1]",Improving the mechanical strength of Negroid hair and reducing its level of premature breakage [2]
"O=C(NCCO)NCCO [Example 1, N,N′-bis(2-hydroxyethyl)urea]",R = 0.17,R = 0.10,
OCC(O)CO [glycerol],,,effective
